Experimental data taken from the NIST ThermoML archive (doi:10.1016/j.jct.2014.10.015).
± gives the expanded uncertainty stated by the source.

Test: mn = molality of the nth substance listed, in mol/kg
Conditions: 101.3 kPa, Liquid, Vibrating tube method

O=c1cc[nH]c(=O)[nH]1 [2,4(1H,3H)-pyrimidinedione] + O
mass density [kg/m3]
Conditions | 288.15 K | 298.15 K | 308.15 K | 318.15 K
m1 = 0.00553 | 999.354 ± 0.088 | 997.267 ± 0.089 | 994.275 ± 0.09 | 990.452 ± 0.092
m1 = 0.00878 | – | 997.396 ± 0.089 | – | –
m1 = 0.01162 | 999.599 ± 0.088 | 997.507 ± 0.09 | 994.508 ± 0.09 | 990.68 ± 0.092
m1 = 0.01202 | – | 997.522 ± 0.09 | – | –
m1 = 0.01509 | 999.736 ± 0.088 | 997.643 ± 0.088 | 994.639 ± 0.09 | 990.808 ± 0.091
m1 = 0.01724 | – | 997.727 ± 0.089 | – | –
m1 = 0.01985 | 999.924 ± 0.087 | 997.828 ± 0.088 | 994.818 ± 0.09 | 990.984 ± 0.091
m1 = 0.02348 | – | 997.97 ± 0.089 | – | –
m1 = 0.02387 | – | 997.985 ± 0.089 | – | –
m1 = 0.02487 | – | 998.023 ± 0.088 | – | –
m1 = 0.02578 | 1000.15 ± 0.088 | 998.059 ± 0.089 | 995.038 ± 0.09 | 991.203 ± 0.091
m1 = 0.03026 | 1000.33 ± 0.088 | 998.232 ± 0.088 | 995.205 ± 0.09 | 991.367 ± 0.091

Nc1cc[nH]c(=O)n1 [4-amino-2-hydroxypyrimidine] + O
mass density [kg/m3]
Conditions | 288.15 K | 298.15 K | 308.15 K | 318.15 K
m1 = 0.00616 | 999.374 ± 0.088 | 997.282 ± 0.089 | 994.295 ± 0.09 | 990.472 ± 0.092
m1 = 0.01095 | 999.56 ± 0.088 | 997.461 ± 0.089 | 994.473 ± 0.09 | 990.648 ± 0.092
m1 = 0.01278 | – | 997.529 ± 0.089 | – | –
m1 = 0.01633 | 999.767 ± 0.088 | 997.66 ± 0.088 | 994.67 ± 0.09 | 990.845 ± 0.091
m1 = 0.01855 | – | 997.743 ± 0.089 | – | –
m1 = 0.01892 | – | 997.756 ± 0.089 | – | –
m1 = 0.01961 | 999.894 ± 0.088 | 997.779 ± 0.089 | 994.791 ± 0.09 | 990.964 ± 0.091
m1 = 0.02682 | 1000.17 ± 0.088 | 998.042 ± 0.089 | 995.052 ± 0.09 | 991.228 ± 0.091
m1 = 0.02766 | – | 998.073 ± 0.089 | – | –
m1 = 0.02813 | – | 998.09 ± 0.089 | – | –
m1 = 0.03302 | 1000.4 ± 0.088 | 998.264 ± 0.088 | 995.271 ± 0.09 | 991.452 ± 0.091
m1 = 0.0353 | – | 998.345 ± 0.088 | – | –

Cl.N=C(N)N [guanidine hydrochloride] + O
mass density [kg/m3]
Conditions | m1 = 0.1 | m1 = 0.25 | m1 = 0.5 | m1 = 0.75 | m1 = 1
288.15 K | 1001.93 ± 0.089 | 1006.02 ± 0.091 | 1012.56 ± 0.095 | 1018.77 ± 0.099 | 1024.63 ± 0.1
298.15 K | 999.788 ± 0.088 | 1003.75 ± 0.09 | 1010.1 ± 0.094 | 1016.1 ± 0.097 | 1021.79 ± 0.1
308.15 K | 996.735 ± 0.089 | 1000.63 ± 0.088 | 1006.86 ± 0.092 | 1012.74 ± 0.095 | 1018.36 ± 0.099
318.15 K | 992.885 ± 0.091 | 996.736 ± 0.089 | 1002.87 ± 0.089 | 1008.68 ± 0.093 | 1014.2 ± 0.096

Cc1cn([C@H]2CC(O)[C@@H](CO)O2)c(=O)[nH]c1=O (stereo partly drawn) [thymidine] + O
mass density [kg/m3]
Conditions | m1 = 0.00963 | m1 = 0.01114 | m1 = 0.01478 | m1 = 0.02291 | m1 = 0.02594 | m1 = 0.0288
288.15 K | 999.851 ± 0.18 | 999.964 ± 0.18 | 1000.24 ± 0.18 | 1000.84 ± 0.18 | 1001.06 ± 0.18 | 1001.27 ± 0.18
298.15 K | 997.759 ± 0.18 | 997.871 ± 0.18 | 998.139 ± 0.18 | 998.733 ± 0.18 | 998.954 ± 0.18 | 999.162 ± 0.18
308.15 K | 994.768 ± 0.18 | 994.878 ± 0.18 | 995.142 ± 0.18 | 995.73 ± 0.18 | 995.947 ± 0.18 | 996.152 ± 0.18
318.15 K | 990.937 ± 0.18 | 991.046 ± 0.18 | 991.306 ± 0.18 | 991.881 ± 0.18 | 992.094 ± 0.18 | 992.294 ± 0.18

Cc1c[nH]c(=O)[nH]c1=O [thymine] + O
mass density [kg/m3]
Conditions | m1 = 0.00771 | m1 = 0.01299 | m1 = 0.01771 | m1 = 0.02319 | m1 = 0.02665 | m1 = 0.03315
288.15 K | 999.423 ± 0.088 | 999.622 ± 0.088 | 999.797 ± 0.088 | 1000 ± 0.087 | 1000.13 ± 0.088 | 1000.37 ± 0.088
298.15 K | 997.334 ± 0.089 | 997.53 ± 0.089 | 997.704 ± 0.088 | 997.906 ± 0.088 | 998.033 ± 0.088 | 998.27 ± 0.088
308.15 K | 994.344 ± 0.09 | 994.535 ± 0.09 | 994.705 ± 0.09 | 994.901 ± 0.09 | 995.023 ± 0.09 | 995.252 ± 0.09
318.15 K | 990.518 ± 0.092 | 990.703 ± 0.092 | 990.867 ± 0.091 | 991.055 ± 0.091 | 991.172 ± 0.091 | 991.393 ± 0.091
